Tests used:
Conditions in all cases: treatment: drug alone; 5 days
[1] = system: TK-10; assay: GI50, drug alone; higher = less potent
Protocol: (§1)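 Primary HTS: 8 RCC cell lines treated with 8 doses (up to 10 uM) of each library drug alone for 5 days; viability read by CellTiter-Glo and normalised to DMSO. GI50 was fitted with XLfit (4-parameter), AUC is the area under the dose-response curve, and minimum viability is the lowest fraction of DMSO viability across doses.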

[2] = system: SN12C; assay: GI50, drug alone; higher = less potent
Protocol: as §1

[3] = system: ACHN; assay: GI50, drug alone; higher = less potent
Protocol: as §1

[4] = system: A498; assay: GI50, drug alone; higher = less potent
Protocol: as §1

[5] = system: 786-O; assay: GI50, drug alone; higher = less potent
Protocol: as §1

[6] = system: UO-31; assay: GI50, drug alone; higher = less potent
Protocol: as §1

[7] = system: 769-P; assay: GI50, drug alone; higher = less potent
Protocol: as §1

[8] = system: CAKI-1; assay: GI50, drug alone; higher = less potent
Protocol: as §1

[9] = system: TK-10; assay: AUC of dose-response viability curve, drug alone (arbitrary (AUC of normalised viability)); higher = less growth inhibition
Protocol: as §1

[10] = system: SN12C; assay: as above
Protocol: as §1

[11] = system: ACHN; assay: as above
Protocol: as §1

[12] = system: A498; assay: as above
Protocol: as §1

[13] = system: 786-O; assay: as above
Protocol: as §1

[14] = system: UO-31; assay: as above
Protocol: as §1

[15] = system: 769-P; assay: as above
Protocol: as §1

[16] = system: CAKI-1; assay: as above
Protocol: as §1

[17] = system: TK-10; assay: minimum viability across doses, drug alone, relative to DMSO (fraction); higher = less growth inhibition
Protocol: as §1

[18] = system: SN12C; assay: as above
Protocol: as §1

[19] = system: ACHN; assay: as above
Protocol: as §1

[20] = system: A498; assay: as above
Protocol: as §1

[21] = system: 786-O; assay: as above
Protocol: as §1

[22] = system: UO-31; assay: as above
Protocol: as §1

[23] = system: 769-P; assay: as above
Protocol: as §1

[24] = system: CAKI-1; assay: as above
Protocol: as §1

SMILES	GI50, drug alone [3]	GI50, drug alone [5]	GI50, drug alone [1]	GI50, drug alone [2]	GI50, drug alone [4]	GI50, drug alone [6]	GI50, drug alone [7]	GI50, drug alone [8]	AUC of dose-response viability curve [9]	AUC of dose-response viability curve [10]	AUC of dose-response viability curve [11]	AUC of dose-response viability curve [12]	AUC of dose-response viability curve [13]	AUC of dose-response viability curve [14]	AUC of dose-response viability curve [15]	AUC of dose-response viability curve [16]	minimum viability across doses [17]	minimum viability across doses [18]	minimum viability across doses [19]	minimum viability across doses [20]	minimum viability across doses [21]	minimum viability across doses [22]	minimum viability across doses [23]	minimum viability across doses [24]
O=C(O)c1ccc2c(c1)nc(Nc1cccc(Cl)c1)c1ccncc12 [cx-4945 (Silmitasertib)]	8.87 µM	5.23 µM	> 10 µM	> 10 µM	> 10 µM	> 10 µM	> 10 µM	3.97 µM	3.01	3.06	3.2	4.21	2.33	4.43	3.12	3.07	0.634	0.681	0.238	0.956	0.259	0.541	0.679	0.0814
O=C1c2ccccc2-c2n[nH]c3cccc1c23	8.89 µM	> 10 µM	> 10 µM	> 10 µM	> 10 µM	> 10 µM	> 10 µM	6.06 µM	3.07	3.37	3.44	4.19	2.81	3.08	3.24	3.09	0.562	0.822	0.421	0.999	0.545	0.52	0.799	0.251
CN(c1ncccc1CNc1nc(Nc2ccc3c(c2)CC(=O)N3)ncc1C(F)(F)F)S(C)(=O)=O.O=S(=O)(O)c1ccccc1	2.59 µM	0.21 µM	4.46 µM	3.88 µM	7.73 µM	4.55 µM	4.89 µM	5.15 µM	2.8	2.94	2.86	3.68	1.79	3.81	3.06	3.34	0.132	0.0169	0.0138	0.018	0.00443	0.0117	0.0576	0.0631
CC(O)C(=O)O.CC(O)C(=O)O.CN1CCN(c2ccc3nc(-c4c(N)c5c(F)cccc5[nH]c4=O)[nH]c3c2)CC1 [Dovitinib Dilactic acid (TKI258 Dilactic acid)]	0.303 µM	2.9 µM	3.16 µM	1.16 µM	> 10 µM	6.52 µM	3.05 µM	0.43 µM	2.61	2.38	2	4.64	2.9	4.66	3.15	2.21	0.304	0.0691	0.107	0.494	0.191	0.342	0.034	0.0485
CCS(=O)(=O)Nc1ccc2c(c1)/C(=C(/Nc1ccc(CN3CCCCC3)cc1)c1ccccc1)C(=O)N2 [Hesperadin]	0.111 µM	0.0639 µM	1.46 µM	0.199 µM	2.5 µM	2.49 µM	1.18 µM	0.189 µM	2.46	1.86	1.63	3.72	1.54	3.32	2.53	1.85	0.0523	0.00306	0.00749	0.0284	0.0109	0.0115	0.0547	0.0394
COc1ccc2cc(-c3[nH]c(-c4ccc(S(C)=O)cc4)nc3-c3ccncc3)ccc2c1 (configuration not stated) [Tie2 kinase inhibitor]	> 10 µM	> 10 µM	> 10 µM	> 10 µM	> 10 µM	> 10 µM	> 10 µM	> 10 µM	3.35	3.4	3.08	4.67	3.15	5.91	3.4	3.54	0.799	0.755	0.762	1.08	0.52	1.2	0.951	0.864

Second part, led by results:

GI50, drug alone [3]	GI50, drug alone [5]	SMILES	GI50, drug alone [1]	GI50, drug alone [2]	GI50, drug alone [4]	GI50, drug alone [6]	GI50, drug alone [7]	GI50, drug alone [8]	AUC of dose-response viability curve [9]	AUC of dose-response viability curve [10]	AUC of dose-response viability curve [11]	AUC of dose-response viability curve [12]	AUC of dose-response viability curve [13]	AUC of dose-response viability curve [14]	AUC of dose-response viability curve [15]	AUC of dose-response viability curve [16]	minimum viability across doses [17]	minimum viability across doses [18]	minimum viability across doses [19]	minimum viability across doses [20]	minimum viability across doses [21]	minimum viability across doses [22]	minimum viability across doses [23]	minimum viability across doses [24]
1.29 µM	4.89 µM	NC(=O)Nc1sc(-c2ccc(F)cc2)cc1C(N)=O [TPCA-1]	1.78 µM	> 10 µM	> 10 µM	> 10 µM	> 10 µM	1.45 µM	2.53	3.24	2.57	4.38	2.54	3.64	3.16	2.67	0.178	0.544	0.201	1.1	0.189	0.627	0.355	0.117
4.79 µM	4.55 µM	COc1ccc2c(Oc3ccc(NC(=O)c4c(C)n(CC(C)(C)O)n(-c5ccccc5)c4=O)nc3)ccnc2c1 [AMG458]	> 10 µM	> 10 µM	> 10 µM	> 10 µM	> 10 µM	8.65 µM	3.29	3.13	3.03	3.66	2.82	3.98	3.55	3.32	0.66	0.71	0.262	0.859	0.25	0.597	0.971	0.449

— the supplement of paper PMC8149375
